How the values were obtained:
[1] = tested on: mice subjected to chronic unpredictable stress (CUS); test: Chronic unpredictable stress (CUS) in mice, behavioral state (learned helplessness, social interaction, anhedonia); assay type: in vivo; conditions: exogenous allopregnanolone treatment after 3 weeks CUS; FIGS. 3B-3D
Source text: In each graph, from left to right, the first bar is control, second bar is mice following CUS, and the third bar is mice following CUS and with exogenous allopregnanolone treatment.
Decreased expression of 5α-reductase 1 and 2 is associated with chronic stress, a major risk factor for depression. […] Reduced endogenous neurosteroids impaired the affective state.

women with PPD = conditions: zuranolone treatment; cited from earlier work

CC(=O)[C@H]1CC[C@H]2[C@@H]3CC[C@H]4C[C@H](O)CC[C@]4(C)[C@H]3CC[C@]12C [allopregnanolone]
behavioral state of the mice following CUS (learned helplessness, social interaction, anhedonia) [1]: restored the behavioral state

C[C@@]1(O)CC[C@H]2[C@H](CC[C@@H]3[C@@H]2CC[C@]2(C)[C@@H](C(=O)Cn4cc(C#N)cn4)CC[C@@H]32)C1 [zuranolone]
women with PPD exhibiting a rapid antidepressant response (women with PPD): 57%
